Legend:
[1] = system: bacteria; experiment: Growth of bacteria in presence of lysergol alone (killing activity); format: cell-based; settings: 10 µg/ml, no antibiotic
Protocol: The invention is further explained in the form of following embodiments. • 1. Assay for bio-enhancement of anti-infective agents • (a) The minimum inhibitory concentration (MIC) of antibiotic is determined against Escherichia coli (ATCC 10536), Bacillus subtilis (ATCC 6051) and Mycobacterium smegmatis (ATCC 14468) in broth and disc diffusion assay. • (b) The antibiotics at concentrations 1/4, 1/3, 1/2 and equal to MIC are added alone and in combination with the test compound at varying concentrations on disc and in broth to evaluate the comparative inhibition. • (c) These combinations showing significant advantage or higher activity than antibiotic alone in terms of enhanced inhibition of bacterial growth (large inhibition zone in disc diffusion and effectivity of lower concentration in broth assay) are picked up for future testing. • (d) In broth assay the activity is quantified by counting number of viable cells in a given treatment and converted in fold enhancement by combination compared to antibiotic / drug alone in the killing percentage of cells. • (e) The pretreatment assay followed to determine whether the compound is required along with antibiotic to enhance its activity or even its withdrawal after treatment or prior to antibiotic treatment would benefit. […]

[2] = system: Escherichia coli; experiment: microbe, parasite or virus in culture
Protocol: The invention is further explained in the form of following embodiments. • 1. […] For this, the cells are treated with compound for 4 to 8 hours and then washed free of it by centrifugation and washing in sterile water. […] These experiments are being described in the following examples. […] In all the experiments the Lysergol concentration is kept at 10 µg/ml, unless it is specifically mentioned.

[3] = system: Bacillus subtilis; experiment: Broth assay, viable cell count: killing action of antibiotic alone and in combination with lysergol; format: cell-based, Bacillus subtilis (ATCC 6051)
Protocol: (§1) The invention is further explained in the form of following embodiments. • 1. Assay for bio-enhancement of anti-infective agents • (a) The minimum inhibitory concentration (MIC) of antibiotic is determined against Escherichia coli (ATCC 10536), Bacillus subtilis (ATCC 6051) and Mycobacterium smegmatis (ATCC 14468) in broth and disc diffusion assay. • (b) The antibiotics at concentrations 1/4, 1/3, 1/2 and equal to MIC are added alone and in combination with the test compound at varying concentrations on disc and in broth to evaluate the comparative inhibition. • (c) These combinations showing significant advantage or higher activity than antibiotic alone in terms of enhanced inhibition of bacterial growth (large inhibition zone in disc diffusion and effectivity of lower concentration in broth assay) are picked up for future testing. • (d) In broth assay the activity is quantified by counting number of viable cells in a given treatment and converted in fold enhancement by combination compared to antibiotic / drug alone in the killing percentage of cells. • (e) The pretreatment assay followed to determine whether the compound is required along with antibiotic to enhance its activity or even its withdrawal after treatment or prior to antibiotic treatment would benefit. For this, the cells are treated with compound for 4 to 8 hours and then washed free of it by centrifugation and washing in sterile water. This is followed by treatment with antibiotic as in steps b to d.
(§2) Bioactivity is experimented with the killing activities of different antibiotics against the bacteria singly and in combination with the test compound Lysergol following the method described above. These experiments are being described in the following examples. […] In all the experiments the Lysergol concentration is kept at 10 µg/ml, unless it is specifically mentioned.
Lysergol mediated enhancement in the killing action of antibiotics against Gram positive bacterium Bacillus subtilis.

[4] = system: Mycobacterium smegmatis; experiment: as above; format: cell-based, Mycobacterium smegmatis (ATCC 14468)
Protocol: as §1, §2
Lysergol mediated enhancement in the killing action of antibiotics against bacterium Mycobacterium smegmatis Table 3: […]

[5] = Transport of antibiotics across freshly isolated gut membrane in U-shaped tubes (absorbency in right arm); format: in vitro ADME
Protocol: We performed the experiments in U-shaped tubes with joint in between, where the freshly isolated gut membrane is fixed. In control tube only antibiotic solution (4ml @ 1mg/ml solution) is poured in the left arm where as in the right arm only water is poured. In the other tube in addition to the antibiotic solution lysergol (4µg @ 1µg/ml) is added.

[6] = Escherichia coli, read-out: Survival fraction of viable cells upon treatment with antibiotic alone

| SMILES | killing of bacteria grown in presence of the compound as such [1] | viability at 10 µg/mL [2, 6] [%] | viability at 20 µg/mL [2, 6] [%] | Fold enhancement in antibiotic activity ([2]; antibiotic 10 µg/ml + lysergol 10 µg/ml versus antibiotic alone) | Fold enhancement in antibiotic activity ([2]; antibiotic 20 µg/ml + lysergol 10 µg/ml versus antibiotic alone) | viability at 0.4 µg/mL ([3]; Bacillus subtilis, read-out: Survival fraction of viable cells upon treatment with antibiotic alone) [%] | Survival fraction of viable cells upon treatment with antibiotic + lysergol combination ([3]; antibiotic 0.4 µg/ml + lysergol 10 µg/ml) | Fold enhancement in antibiotic activity ([3]; antibiotic 0.4 µg/ml + lysergol 10 µg/ml versus antibiotic alone) | viability at 0.2 µg/mL ([4]; Mycolicibacterium smegmatis, read-out: Survival fraction of viable cells upon treatment with antibiotic alone) [%] | Survival fraction of viable cells upon treatment with antibiotic + lysergol combination ([4]; antibiotic 0.2 µg/ml + lysergol 10 µg/ml) | Fold enhancement in antibiotic activity ([4]; antibiotic 0.2 µg/ml + lysergol 10 µg/ml versus antibiotic alone) | Increase in absorbency [5] |
| --- | --- | --- | --- | --- | --- | --- | --- | --- | --- | --- | --- | --- |
| CN1C[C@H](CO)C=C2c3cccc4[nH]cc(c34)C[C@H]21 [Lysergol, 9,10-Didehydro-6-methylergoline-8-[…]-methanol] | no significant killing | – | – | – | – | – | – | – | – | – | – | – |
| CO[C@H]1/C=C/O[C@@]2(C)Oc3c(C)c(O)c4c(O)c(c(/C=N/N5CCN(C)CC5)c(O)c4c3C2=O)NC(=O)/C(C)=C\C=C\[C@H](C)[C@H](O)[C@@H](C)[C@@H](O)[C@@H](C)[C@H](OC(C)=O)[C@@H]1C [Rifampicin] | – | 35 to 45 | 25 to 30 | 6-12 fold | 3-5 fold | 8.5 to 9.6 | 0.021-0.028 | 3.0-4.6 fold | 45 to 54 | 0.09-0.10 | 4.5-6.0 fold | 0.131 |

From patent EP1370263B1, “ANTIBIOTIC PHARMACEUTICAL COMPOSITION WITH LYSERGOL AS BIO-ENHANCER AND METHOD OF TREATMENT” (Council of Scientific and Industrial Research, priority 2002, dated 2003)
